pIC50: −log10 of the molar value.
How the values were obtained:
[1] = EP054/EP055 plasma half-life in cynomolgus male macaques; design: species or system Macaca fascicularis; settings: cynomolgus monkey, in vivo, iv, 1 mg/kg, summary of both studies
Procedure: Half-life measurements for EP054/EP055 were done by Sinclair Research Center, LLC (SRC) (Study No. S14109, Auxvasse, MO). This study was reviewed and approved by the Sinclair IUCAC committee and complied with all applicable sections of USDA Policy 12 and the Final Rules of the Animal Welfare Act regulation (9 CFR). This study used 3 naïve cynomolgus (Macaca fascicularis) males (3-4 yrs old, 4 kg or less). Doses of EP054 in 3% DMSO-PBS, pH 7.6 were infused by i.v. at 1.0 mg/kg. The infusion rate was 4 ml/min. Plasma samples were collected at 0, 5, 15, 30 min and 1, 4, 8 and 24 hours, and immediately frozen on dry ice. Samples were stored at -80 °C until processing.
Sample preparation and LC-MS/MS analysis were done by OpAns LLC (Durham, NC). Plasma samples (both rat and macaque) were thawed at room temperature and processed by adding 160 µL of methanol (including 10 µL internal standard) to 25 µL of the sample. Samples were vortexed for 5 minutes, centrifuged at 2684 x g for 5 minutes. 50 µL of supernatant was removed for analysis by HPLC-MS/MS.
Therefore, samples were analyzed for the presence of EP055.

EPPIN = EPPIN (Homo sapiens, UniProt O95925); experiment: AlphaScreen assay of a-EAb binding to EPPIN; settings: n = 4, read-out: IC50, inhibition of a-EAb binding to EPPIN
Procedure: The AlphaScreen® assay was carried as previously described. Briefly, recombinant histidine-tagged recombinant EPPIN was pre-incubated with Ni-NTA chelate donor beads (catalog number AS101, Perkin Elmer, Waltham MA) and anti-Eppin 007 antibody was pre-incubated with Protein A acceptor beads (catalog number 6760136, Perkin Elmer, Waltham MA) for 30 minutes. Equal volumes of donor and acceptor bead mixtures were pipetted into white opaque 384-well microplates (OptiPlate-384; PerkinElmer, Waltham, MA) in a final volume of 30 μL. Plates were covered with top seal and transferred to a Synergy 2 Multiplatform automated plate reader (Biotek, Winooski, VT). After shaking for 2 min, plates were read with an excitation 680/30 filter, an emission 570/100 filter and data acquired using Gen5 software (Biotek). Each set of samples was pipetted in 4 replicates. […] A specific signal for each time point was calculated by subtracting the background signal (obtained in the absence of EPPIN) from its respective total signal. […] Non-specific interactions of compound with assay components were measured at the same time with the IgG detection kit ([…] biotinylated rabbit IgG) to generate the bead interaction: 10 μg/ml donor and acceptor beads. […]

EPPIN, sequence (O95925 22-133): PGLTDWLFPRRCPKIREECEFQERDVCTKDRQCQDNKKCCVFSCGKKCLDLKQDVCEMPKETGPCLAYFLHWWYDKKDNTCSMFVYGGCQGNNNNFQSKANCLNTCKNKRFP

SMILES: COC(=O)NNc1nc(Nc2ccc(NC(C)=O)c(O)c2)nc(SCC(=O)O)n1 [EP055]
- half-life [1]: 10 to 12 min
- pIC50 (EPPIN): 2.95
